Source: US20050054696A1, “Indole compounds and medicinal use thereof” (priority 2001, published 2005)

Biological target: T1, recombinant human liver glycogen phosphorylase (HLGPa) (Homo sapiens, UniProt P06737)
T1 construct: made in house; host or cells: Sf9 insect cells (unpurified cell lysate used as enzyme solution)
T1 sequence (P06737 1-847): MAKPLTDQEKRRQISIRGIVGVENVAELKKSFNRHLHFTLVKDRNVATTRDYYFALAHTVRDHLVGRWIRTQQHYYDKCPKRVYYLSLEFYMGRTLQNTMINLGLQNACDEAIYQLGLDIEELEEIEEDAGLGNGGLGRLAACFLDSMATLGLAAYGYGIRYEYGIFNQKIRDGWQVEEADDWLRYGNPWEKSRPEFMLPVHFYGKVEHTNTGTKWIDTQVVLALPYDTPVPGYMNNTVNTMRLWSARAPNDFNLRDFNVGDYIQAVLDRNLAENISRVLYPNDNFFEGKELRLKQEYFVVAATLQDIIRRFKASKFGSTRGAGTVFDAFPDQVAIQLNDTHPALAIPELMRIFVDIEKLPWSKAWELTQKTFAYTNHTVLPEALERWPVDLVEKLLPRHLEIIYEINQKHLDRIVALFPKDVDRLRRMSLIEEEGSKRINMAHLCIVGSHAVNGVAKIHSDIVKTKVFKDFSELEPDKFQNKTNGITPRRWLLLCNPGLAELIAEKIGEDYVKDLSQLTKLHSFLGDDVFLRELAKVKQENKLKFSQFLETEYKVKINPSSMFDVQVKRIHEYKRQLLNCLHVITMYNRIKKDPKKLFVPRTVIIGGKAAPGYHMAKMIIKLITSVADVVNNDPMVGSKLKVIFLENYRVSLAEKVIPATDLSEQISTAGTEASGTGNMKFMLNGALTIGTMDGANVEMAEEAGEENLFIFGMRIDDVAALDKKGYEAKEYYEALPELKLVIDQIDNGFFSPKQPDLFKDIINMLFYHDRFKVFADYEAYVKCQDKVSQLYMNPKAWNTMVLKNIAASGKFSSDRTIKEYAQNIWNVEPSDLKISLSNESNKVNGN
Experiment: Measurement of liver glycogen phosphorylase activity (enzyme inhibitory activity against HLGPa)
Format: biochemical
Conditions: Sf9 cell lysate expressing recombinant enzyme; reverse reaction (glycogen synthesis from G1-P), phosphate by malachite green, 60 min room temperature
Procedure, shortened: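 Activity was run in the reverse, glycogen-synthesis direction, using Sf9 lysate expressing recombinant human liver glycogen phosphorylase (enzyme solution 80 μg/mL protein, pH 7.0). Substrate solution was Tris pH 7.2 with 1.25 mM glucose-1-phosphate, 2.5 mg/ml glycogen and 7.5 mM glucose, reacted 60 min at room temperature. Released phosphate was measured by malachite green A650, with % inhibition taken against DMSO control and no-enzyme blank.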

SMILES	IC50 [nM]
O=C(NNC(=O)c1cc2sccc2[nH]1)c1cc2cc(Cl)ccc2[nH]1 [Example 1-108, 4H-thieno[3,2-b]pyrrole-5-carboxylic acid 2-(5-chloro-1H-indole-2-carbonyl)hydrazide]	56
O=C(Nc1ccccc1C(=O)NNC(=O)c1cc2cc(Cl)ccc2[nH]1)Oc1ccccc1 [Example 1-109, phenyl (2-(2-(5-chloro-1H-indole-2-carbonyl)hydrazinocarbonyl)phenyl)carbamate]	140
O=C(Nc1ccccc1C(=O)NNC(=O)c1cc2cc(Cl)ccc2[nH]1)OCc1ccccc1 [Example 1-110, benzyl (2-(2-(5-chloro-1H-indole-2-carbonyl)hydrazinocarbonyl)phenyl)carbamate]	35
O=C(Nc1ccccc1C(=O)NNC(=O)c1cc2cc(Cl)ccc2[nH]1)OCCCO [Example 1-112, 3-hydroxypropyl (2-(2-(5-chloro-1H-indole-2-carbonyl)hydrazinocarbonyl)phenyl)carbamate]	28
CN(NC(=O)c1cc2cc(Cl)ccc2[nH]1)C(=O)C1CCCCC1 [Example 1-116, cyclohexanecarboxylic acid 2-(5-chloro-1H-indole-2-carbonyl)-1-methylhydrazide]	41
O=C(NNC(=O)c1cc2cc([N+](=O)[O-])ccc2[nH]1)c1ccccc1 [Example 1-122, benzoic acid 2-(5-nitro-1H-indole-2-carbonyl)hydrazide]	> 100
O=C(NNC(=O)c1cc2cc(OCc3ccccc3)ccc2[nH]1)c1ccccc1 [Example 1-123, benzoic acid 2-(5-benzyloxy-1H-indole-2-carbonyl)hydrazide]	> 100
O=C(NNC(=O)c1cc2ccc(Cl)cc2[nH]1)c1ccccc1 [Example 1-124, benzoic acid 2-(6-chloro-1H-indole-2-carbonyl)hydrazide]	> 100
O=C(NNC(=O)c1cc2ccsc2[nH]1)c1cc2cc(Cl)ccc2[nH]1 [Example 1-125, 6H-thieno[2,3-b]pyrrole-5-carboxylic acid 2-(5-chloro-1H-indole-2-carbonyl)hydrazide]	190
N=C(NNC(=O)c1cc2cc(Cl)ccc2[nH]1)c1cccc(F)c1 [Example 1-127, 5-chloro-1H-indole-2-carboxylic acid 2-((3-fluorophenyl)-imino-methyl)hydrazide]	84
N=C(NNC(=O)c1cc2cc(Cl)ccc2[nH]1)c1ccc(F)cc1 [Example 1-128, 5-chloro-1H-indole-2-carboxylic acid 2-((4-fluorophenyl)-imino-methyl)hydrazide]	33
Cc1ccc(C(=N)NNC(=O)c2cc3cc(Cl)ccc3[nH]2)cc1 [Example 1-129, 5-chloro-1H-indole-2-carboxylic acid 2-(imino-(p-tolyl)-methyl)hydrazide]	59
N=C(NNC(=O)c1cc2cc(Cl)ccc2[nH]1)c1cccc(F)c1 [Example 1-132, 5-chloro-1H-indole-2-carboxylic acid 2-((3-fluorophenyl)-imino-methyl)hydrazide]	110
Cc1ccccc1C(=N)NNC(=O)c1cc2cc(Cl)ccc2[nH]1 [Example 1-133, 5-chloro-1H-indole-2-carboxylic acid 2-(imino-(o-tolyl)-methyl)hydrazide]	50
N=C(NNC(=O)c1cc2cc(Cl)ccc2[nH]1)c1ccccn1 [Example 1-136, 5-chloro-1H-indole-2-carboxylic acid 2-(imino-(pyridin-2-yl)-methyl)hydrazide]	270
N=C(NNC(=O)c1cc2cc(Cl)ccc2[nH]1)c1ccco1 [Example 1-137, 5-chloro-1H-indole-2-carboxylic acid 2-((furan-2-yl)-imino-methyl)hydrazide]	330
N=C(NNC(=O)c1cc2cc(Cl)ccc2[nH]1)c1c(F)cccc1Cl [Example 1-138, 5-chloro-1H-indole-2-carboxylic acid 2-((2-chloro-6-fluorophenyl)-imino-methyl)hydrazide]	460

SMILES	IC50 [nM]
N=C(NNC(=O)c1cc2cc(Cl)ccc2[nH]1)c1ccccc1C(F)(F)F [Example 1-139, 5-chloro-1H-indole-2-carboxylic acid 2-(imino-(2-trifluoromethylphenyl)-methyl)hydrazide]	380
N=C(NNC(=O)c1cc2cc(Cl)ccc2[nH]1)c1cnccn1 [Example 1-140, 5-chloro-1H-indole-2-carboxylic acid 2-(imino-(pyrazin-2-yl)-methyl)hydrazide]	180
Cc1nc(C(=O)NNC(=O)c2cc3cc(Cl)ccc3[nH]2)c(N)s1 [Example 1-143, 5-amino-2-methylthiazole-4-carboxylic acid 2-(5-chloro-1H-indole-2-carbonyl)hydrazide]	120
O=C(Nn1c(=O)[nH]c2ccccc2c1=O)c1cc2cc(Cl)ccc2[nH]1 [Example 2, N-(1,2,3,4-tetrahydro-2,4-dioxoquinazolin-3-yl)-5-chloro-1H-indole-2-carboxamide]	16
O=C(Nn1c(=O)oc2ccccc2c1=O)c1cc2cc(Cl)ccc2[nH]1 [Example 2-2, N-(1,2,3,4-tetrahydro-2,4-dioxobenzo[e][1,3]oxazin-3-yl)-5-chloro-1H-indole-2-carboxamide]	71
CC(C)c1ccc2[nH]c(C(=O)Nn3c(=O)[nH]c4ccccc4c3=O)cc2c1 [Example 2-9, 5-isopropyl-1H-indole-2-carboxylic acid (1,2,3,4-tetrahydro-2,4-dioxoquinazolin-3-yl)amide]	> 100
CC(C)c1ccc2[nH]c(C(=O)Nn3c(=O)[nH]c4cc(F)ccc4c3=O)cc2c1 [Example 2-10, 5-isopropyl-1H-indole-2-carboxylic acid (7-fluoro-1,2,3,4-tetrahydro-2,4-dioxoquinazolin-3-yl)amide]	> 100
O=C(Nn1c(=O)[nH]c2ccccc2c1=O)c1cc2cc(F)ccc2[nH]1 [Example 2-11, 5-fluoro-1H-indole-2-carboxylic acid (1,2,3,4-tetrahydro-2,4-dioxoquinazolin-3-yl)amide]	> 100
O=C(Nn1c(=O)[nH]c2ccccc2c1=O)c1cc2ccc(Cl)cc2[nH]1 [Example 2-12, 6-chloro-1H-indole-2-carboxylic acid (1,2,3,4-tetrahydro-2,4-dioxoquinazolin-3-yl)amide]	440
Nc1ccc2[nH]c(=O)n(NC(=O)c3cc4cc(Cl)ccc4[nH]3)c(=O)c2c1 [Example 2-16, 5-chloro-1H-indole-2-carboxylic acid (6-amino-1,2,3,4-tetrahydro-2,4-dioxoquinazolin-3-yl)amide]	110
O=C(Nn1c(=O)[nH]c2ccc(Cl)cc2c1=O)c1cc2cc(Cl)ccc2[nH]1 [Example 2-18, 5-chloro-1H-indole-2-carboxylic acid (6-chloro-1,2,3,4-tetrahydro-2,4-dioxoquinazolin-3-yl)amide]	40
O=C(Nn1c(=O)[nH]c2cc(Cl)ccc2c1=O)c1cc2cc(Cl)ccc2[nH]1 [Example 2-19, 5-chloro-1H-indole-2-carboxylic acid (7-chloro-1,2,3,4-tetrahydro-2,4-dioxoquinazolin-3-yl)amide]	91
O=C(Nn1c(=O)[nH]c2c(Cl)cccc2c1=O)c1cc2cc(Cl)ccc2[nH]1 [Example 2-20, 5-chloro-1H-indole-2-carboxylic acid (8-chloro-1,2,3,4-tetrahydro-2,4-dioxoquinazolin-3-yl)amide]	22
O=C(O)Cn1c(=O)n(NC(=O)c2cc3cc(Cl)ccc3[nH]2)c(=O)c2ccccc21 [Example 2-21, 2-(3-((5-chloro-1H-indole-2-carbonyl)amino)-1,2,3,4-tetrahydro-2,4-dioxoquinazolin-1-yl)acetic acid]	> 100
COC(=O)Cn1c(=O)n(NC(=O)c2cc3cc(Cl)ccc3[nH]2)c(=O)c2ccccc21 [Example 2-22, 2-(3-((5-chloro-1H-indole-2-carbonyl)amino)-1,2,3,4-tetrahydro-2,4-dioxoquinazolin-1-yl)acetic acid methyl ester]	31
CCc1ccc2[nH]c(C(=O)Nn3c(=O)[nH]c4ccccc4c3=O)cc2c1 [Example 2-25, 5-ethyl-1H-indole-2-carboxylic acid (1,2,3,4-tetrahydro-2,4-dioxoquinazolin-3-yl)amide]	> 100
Cc1ccc2[nH]c(C(=O)Nn3c(=O)[nH]c4cc(F)c(F)cc4c3=O)cc2c1 [Example 2-26, 5-methyl-1H-indole-2-carboxylic acid (6,7-difluoro-1,2,3,4-tetrahydro-2,4-dioxoquinazolin-3-yl)amide]	210
